# Measurements taken from US4698350A, “1-ethyl-6-fluoro-1,4-dihydro- 7-(2,6-dimethyl-4-pyridinyl)-4-oxo-3-quinolinecarboxylic acid and antibacterial use thereof” (Sterling Drug Inc., priority 1984, dated 1987).
# Read-outs that look alike come from different tables or passages of the source.
# Experiments:
# [1] = tested on: P. aeruginosa; experiment: In vitro MIC/MBC summary (Table II); type: cell-based, Pseudomonas aeruginosa
# Description: Win 52,522 and Win 35,439 were solubilized in 0.1 ml of 0.5 N NaOH/mg of compound and diluted in sterile distilled water to 160 mcg/ml. Vancomycin and methicillin were solubilized in sterile distilled water to 1250 mcg/ml of base compound. The stock solutions were sterilized by filtration through membrane filters with a 0.45 μm pore size.
# The bacterial cultures listed in Table I (hereinbelow) were grown overnight at 37° C. in MHB for all cultures except the Streptococcus strains. These were grown in BHI+10% NHS. The overnight broth cultures were adjusted to an optical density of 0.10 (650 nm, B L Spectronic 20) in sterile distilled water and subsequently diluted to 6.7×10^6 cells/ml in MHB or BHI+1% NHS.
# Serial two-fold dilutions of the compound solutions were prepared in MHB (or in BHI+1% NHS for tests with Streptococci) and dispensed into 96-well microtiter trays in a volume of 0.1 ml/well using a Sandy Springs (Bellco Glass Co.) dispenser. The trays were then inoculated with 0.0015 ml of a suspension containing 6.7×10^6 cells/ml of the appropriate inoculum using a MIC-2000 inoculator (Dynatech Corp.) resulting in a final inoculum of approximately 1×10^4 cells/well or 1×10^5 cells/ml. The trays were incubated at 37° C. for 18-20 hours and the minimal inhibitory concentration (MIC), defined as the lowest concentration of compound to inhibit visible bacterial growth, was recorded.
# After the MIC values were recorded, the contents in the microtiter trays were thoroughly mixed on a Bellco Mini-orbital Shaker (Bellco Glass Co.) for 3 min. at a setting of 8. A portion (0.0015 ml) from each well was then transferred via an MIC-2000 inoculator to plates containing MHA or BHI agar+10% NHS. The plates were incubated at 37° C. for 18-20 hrs. The minimal bactericidal concentration (MBC), defined as the lowest concentration of compound that prevented the formation of a recognizable colony on the agar surface, was recorded.
# [2] = tested on: A. viscosus; experiment: Agar dilution MIC, anaerobic microorganisms; type: cell-based; conditions: Actinomyces viscosus, 48 h; A. viscosus; read-out: MIC
# Description: (§1) 1. Maintenance. Prior to use, all strains were maintained in the lyophilized state. During the study, cultures were examined on blood agar basal medium supplemented with 5.0% (v/v) defibrinated rabbit blood. Culture transfer was accomplished weekly with all cultures being incubated in an anaerobic atmosphere (GasPak jar; BBL).
# (§2) 2. Agar Medium. The basal test medium consisted of trypticase soy agar (40 g), yeast extract (1 g), glucose (2 g) and 960 ml of distilled water pH 7.2. [Mashimo et al., J. Clin. Micro. 17, 187-191 (1983)]. Subsequent to sterilization and cooling to 50° C., the medium was supplemented with 4% (v/v) defibrinated rabbit blood and 0.5 μg/ml menadione (Vitamin K3) The agent under evaluation was also added at this time to the concentration desired. Subsequent to pouring of the plates, they were permitted to dry at 4° C. for 24 hr.
# (§3) 3. Determination of Agent MIC. The minimal inhibitory concentration (MIC) of the various test agents was determined using an agar dilution technique. Agents and appropriate reference compounds were added to achieve a series of concentrations ranging between 32 μg/ml and 0.007 μg/ml. The inocula were prepared from 96-hr. cultures grown on the maintenance medium. Subsequent to a purity evaluation, colonies were removed and suspended in trypticase soy broth supplemented with 5 μg/ml menadione and 2% lysed rabbit blood filtrate to achieve an OD650 of 0.1 (this corresponded to approximately 10^8 cells/ml). Cultures were inoculated aerobically on the modified trypticase soy blood agar plates by use of a Steer's replicator (which delivers about 10^5 cells per spot). The plates were allowed to dry for a time not exceeding 30 min. and then incubated at 37° C. under an atmosphere of […], 10% H2 and 5% CO2 maintained in an anaerobic chamber (Coy Manufacturing Co.) for 48 hr. The MIC was defined as the lowest concentration completely inhibiting growth.
# (§4) Tetracycline stock solutions (1 mg/ml) were made subsequent to dissolution in water. Stock solutions (1 mg/ml) of the remaining test compounds were made subsequent to dissolution in 1/10 N NaOH.
# [3] = tested on: B. gingivalis; experiment: Agar dilution MIC, anaerobic microorganisms; type: cell-based; conditions: Porphyromonas gingivalis, 48 h; B. gingivalis; read-out: MIC
# Description: as §1, §2, §3, §4
# [4] = tested on: Campylobacter sputorum; experiment: Agar dilution MIC, anaerobic microorganisms; type: cell-based; conditions: 48 h
# Description: as §1, §2, §3, §4
# [5] = tested on: Capnocytophaga suptigena; experiment: Agar dilution MIC, anaerobic microorganisms; type: cell-based; conditions: 48 h; Capnocytophaga suptigena; read-out: MIC
# Description: as §1, §2, §3, §4
# [6] = tested on: Eikenella corrodens; experiment: Agar dilution MIC, anaerobic microorganisms; type: cell-based; conditions: 48 h, read-out: MIC
# Description: as §1, §2, §3, §4
# [7] = tested on: F. nucleatum; experiment: Agar dilution MIC, anaerobic microorganisms; type: cell-based; conditions: Fusobacterium nucleatum, 48 h; F. nucleatum; read-out: MIC
# Description: as §1, §2, §3, §4
# [8] = tested on: F. polymorphum; experiment: Agar dilution MIC, anaerobic microorganisms; type: cell-based; conditions: 48 h; F. polymorphum; read-out: MIC
# Description: as §1, §2, §3, §4
# [9] = tested on: Wolinella recta; experiment: Agar dilution MIC, anaerobic microorganisms; type: cell-based; conditions: Campylobacter rectus, 48 h
# Description: as §1, §2, §3, §4
# [10] = tested on: Staphylococcus aureus Smith; experiment: Mouse protection test, S. aureus Smith infection, multiple dose; type: in vivo, ICR mice; Staphylococcus aureus; conditions: for ED50: Staphylococcus aureus, 168 h, read-out: Protective Dose 50% (95% Confidence Limits)
# Description: ICR mice, female, 18-20 grams each.
# Solutions of Win 52,522 and Win 35,439 were prepared by dissolving the appropriate weight of drug in 0.3 to 0.4 ml of 1 N NaOH and then bringing the solutions to the desired volume with distilled water. Methicillin and vancomycin were dissolved directly in distilled water.
# Two and one-half ml of pool were added to 247.5 ml of 5% gastric mucin to provide the test inoculum containing 2.1×10^4 cells/ml.
# Mice were inoculated intraperitoneally with 0.5 ml of the bacterial test inoculum.
# 2. Multiple dose test--Mice were medicated subcutaneously (0.2 ml) or orally (0.5 ml) at the following times: six hours and one hour preinfection (infection at 2 pm) and twice a day (8 a.m. and 3:30 p.m.) for the next two successive days.
# Deaths were recorded daily for seven days for all tests. Fifty percent protective dose values (PD50's) were calculated using probit analysis [SAS Users Guide: Statistics, 1982 Edition, SAS Institute, Inc., Cary, N.C.].
# [11] = Pseudomonas aeruginosa, 5 P. aeruginosa strains
# [12] = Pseudomonas aeruginosa, 5 P. aeruginosa strains, read-out: MBC 50%
# [13] = Pseudomonas aeruginosa, 5 P. aeruginosa strains, read-out: MBC 90%
SMILES,"MIC50 [1, 11] [µg/mL]","MIC90 [1, 11] [µg/mL]","MBC [1, 12] [µg/mL]","MBC [1, 13] [µg/mL]",MIC [2] [µg/mL],MIC [3] [µg/mL],MIC [4] [µg/mL],MIC [5] [µg/mL],MIC [6] [µg/mL],MIC [7] [µg/mL],MIC [8] [µg/mL],MIC [9] [µg/mL],Survivors/Total ([10]; 3.13 mg/kg po),Survivors/Total ([10]; 3.13 mg/kg sc),Survivors/Total ([10]; 6.25 mg/kg po),Survivors/Total ([10]; 6.25 mg/kg sc),Survivors/Total ([10]; 12.5 mg/kg po),Survivors/Total ([10]; 12.5 mg/kg sc),ED50 ([10]; po) [mg/kg],ED50 ([10]; sc) [mg/kg],other results
"CCn1cc(C(=O)O)c(=O)c2ccc(-c3cc(C)nc(C)c3)cc21 [Win 35,439, 1-ethyl-1,4-dihydro-7-(2,6-dimethyl-4-pyridinyl)-4-oxo-3-quinolinecarboxylic acid]",16,16,> 16,> 16,8,> 10,> 10,0.5,2,4,4,0.5,0/10,1/10,4/10,3/10,9/10,10/10,7.2,7.1,Survivors/Total ([10]; 25 mg/kg po): 10/10; Survivors/Total ([10]; 25 mg/kg sc): 10/10
"CCn1cc(C(=O)O)c(=O)c2cc(F)c(-c3cc(C)nc(C)c3)cc21 [Win 52,522, 1-ethyl-6-fluoro-1,4-dihydro-7-(2,6-dimethyl-4-pyridinyl)-4-oxo-3-quinolinecarboxylic acid]",16,16,16,16,1,2,8,0.06,0.5,0.5,0.5,0.12,9/10,9/10,10/10,10/10,10/10,10/10,2.1,1.8,"MIC [1, 11]: 4 to 16 µg/mL; MBC ([1]; Pseudomonas aeruginosa, 5 P. aeruginosa strains, read-out: MBC Range): 16 µg/mL; potency relative to Win 35,439 ([1]; in vitro, P. aeruginosa): similarly potent; Survivors/Total ([10]; 0.19 mg/kg po): 0/10; Survivors/Total ([10]; 0.19 mg/kg sc): 0/10; Survivors/Total ([10]; 0.39 mg/kg po): 0/10; Survivors/Total ([10]; 0.39 mg/kg sc): 0/10; Survivors/Total ([10]; 0.78 mg/kg po): 0/10; Survivors/Total ([10]; 0.78 mg/kg sc): 0/10; Survivors/Total ([10]; 1.56 mg/kg po): 2/10; Survivors/Total ([10]; 1.56 mg/kg sc): 4/10; times more efficient than Win 35,439 ([10]; po): 3.4 times; times more efficient than Win 35,439 ([10]; sc): 3.9 times"
